What follows are compounds tested against HPK1 (Homo sapiens (Human), UniProt Q92918) (assay: HPK1 Inhibition Assay (ADP-Glo kinase assay)). Conditions: ATP 10 μM.
Assay type: biochemical
In short: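 ADP-Glo luminescence read-out after 1 h room-temperature kinase reaction with 10 μM ATP and 0.1 μg/ml MBP. Recombinant human HPK1 at 7.5 ng/μl; buffer 40 mM Tris pH 7.5, 20 mM MgCl2. Compounds serially diluted 5-fold over 10 points from 10 mM DMSO stock.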

Chain of HPK1 (Q92918 1-346 limits assumed): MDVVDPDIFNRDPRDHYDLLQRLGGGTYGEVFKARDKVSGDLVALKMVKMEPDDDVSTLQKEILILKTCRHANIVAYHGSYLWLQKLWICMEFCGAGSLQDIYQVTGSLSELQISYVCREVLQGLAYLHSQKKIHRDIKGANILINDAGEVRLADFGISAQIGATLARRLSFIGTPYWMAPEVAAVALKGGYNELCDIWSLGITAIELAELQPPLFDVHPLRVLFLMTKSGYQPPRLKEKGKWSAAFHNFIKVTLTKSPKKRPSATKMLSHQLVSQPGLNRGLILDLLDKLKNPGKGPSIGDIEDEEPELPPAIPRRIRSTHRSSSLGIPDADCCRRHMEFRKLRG

IC50, < 100 nM:
Cc1nn(C(C)C)c2ccc(NC(=O)c3ccc(=O)n(-c4c(F)cccc4F)n3)c(N3C[C@H](N)C4(CC4)C3)c12 [Example 202, (R)-N-(4-(7-amino-5-azaspiro[2.4]heptan-5-yl)-1-isopropyl-3-methyl-1H-indazol-5-yl)-1-(2,6-difluorophenyl)-6-oxo-1,6-dihydropyridazine-3-carboxamide]
CC[C@H]1CN(c2c(NC(=O)c3ccc(=O)n(-c4c(F)cccc4F)n3)cc(F)c3c2cnn3C(C)C)C[C@H]1N [Example 203, N-(4-((35,4S)-3-amino-4-ethylpyrrolidin-1-yl)-7-fluoro-1-isopropyl-1H-indazol-5-yl)-1-(2,6-difluorophenyl)-6-oxo-1,6-dihydropyridazine-3-carboxamide]
CC(C)n1ncc2c(N3CC[C@@H](CN)C3)c(NC(=O)c3ccc(=O)n(-c4c(F)cccc4F)n3)cc(F)c21 [Example 204, (S)-N-(4-(3-(aminomethyl)pyrrolidin-1-yl)-7-fluoro-1-isopropyl-1H-indazol-5-yl)-1-(2,6-difluorophenyl)-6-oxo-1,6-dihydropyridazine-3-carboxamide]
CO[C@H]1CN(c2c(NC(=O)c3ccc(=O)n(-c4c(F)cccc4F)n3)ccc3c2cnn3C(C)C)C[C@H]1N [Example 205, N-(4-((3R,4S)-3-amino-4-methoxypyrrolidin-1-yl)-1-isopropyl-1H-indazol-5-yl)-1-(2,6-difluorophenyl)-6-oxo-1,6-dihydropyridazine-3-carboxamide]
CC(C)n1ncc2c(N3CC(N)C4(COC4)C3)c(NC(=O)c3ccc(=O)n(-c4c(F)cccc4F)n3)ccc21 (stereo not drawn) [Example 206, N-(4-(8-amino-2-oxa-6-azaspiro[3.4]octan-6-yl)-1-isopropyl-1H-indazol-5-yl)-1-(2,6-difluorophenyl)-6-oxo-1,6-dihydropyridazine-3-carboxamide]
CC(C)n1ncc2c(N3CC[C@H](N)C3)c(NC(=O)c3ccc(=O)n(-c4c(F)cccc4F)n3)ccc21 [Example 207, (S)-N-(4-(3-aminopyrrolidin-1-yl)-1-isopropyl-1H-indazol-5-yl)-1-(2,6-difluorophenyl)-6-oxo-1,6-dihydropyridazine-3-carboxamide]
CC(C)n1ncc2c(N3CC[C@@](C)(N)C3)c(NC(=O)c3ccc(=O)n(-c4c(F)cccc4F)n3)ccc21 [Example 208, (R)-N-(4-(3-amino-3-methylpyrrolidin-1-yl)-1-isopropyl-1H-indazol-5-yl)-1-(2,6-difluorophenyl)-6-oxo-1,6-dihydropyridazine-3-carboxamide]
CC(C)n1ncc2c(N3C[C@H](C)[C@@H](N)C3)c(NC(=O)c3ccc(=O)n(-c4c(F)cccc4F)n3)ccc21 [Example 209, N-(4-((3R,4S)-3-amino-4-methylpyrrolidin-1-yl)-1-isopropyl-1H-indazol-5-yl)-1-(2,6-difluorophenyl)-6-oxo-1,6-dihydropyridazine-3-carboxamide]
CC(C)n1ncc2c(N3C[C@@H]4[C@@H](N)[C@@H]4C3)c(NC(=O)c3ccc(=O)n(-c4c(F)cccc4F)n3)ccc21 [Example 211, N-(4-((1R,5S,6s)-6-amino-3-azabicyclo[3.1.0]hexan-3-yl)-1-isopropyl-1H-indazol-5-yl)-1-(2,6-difluorophenyl)-6-oxo-1,6-dihydropyridazine-3-carboxamide]
CC(C)n1ncc2c(N3C[C@@H](N)C[C@H]3CO)c(NC(=O)c3ccc(=O)n(-c4c(F)cccc4F)n3)ccc21 [Example 212, N-(4-((25,4S)-4-amino-2-(hydroxymethyl)pyrrolidin-1-yl)-1-isopropyl-1H-indazol-5-yl)-1-(2,6-difluorophenyl)-6-oxo-1,6-dihydropyridazine-3-carboxamide]
CC(C)n1ncc2c(N3CC[C@@H](NCCO)C3)c(NC(=O)c3ccc(=O)n(-c4c(F)cccc4F)n3)ccc21 [Example 213, (R)-1-(2,6-difluorophenyl)-N-(4-(3-((2-hydroxyethyl)amino)pyrrolidin-1-yl)-1-isopropyl-1H-indazol-5-yl)-6-oxo-1,6-dihydropyridazine-3-carboxamide]
CC(C)n1ncc2c(N3C[C@@H](C)[C@@H](NCCO)C3)c(NC(=O)c3ccc(=O)n(-c4c(F)cccc4F)n3)ccc21 [Example 214, 1-(2,6-difluorophenyl)-N-(4-((3R,4R)-3-((2-hydroxyethyl)amino)-4-methylpyrrolidin-1-yl)-1-isopropyl-1H-indazol-5-yl)-6-oxo-1,6-dihydropyridazine-3-carboxamide]
CC(C)n1ncc2c(N3C[C@@H](C)[C@@H](N)C3)c(NC(=O)c3ccc(=O)n(-c4ccccc4F)n3)ccc21 [Example 215, N-(4-((3R,4R)-3-amino-4-methylpyrrolidin-1-yl)-1-isopropyl-1H-indazol-5-yl)-1-(2-fluorophenyl)-6-oxo-1,6-dihydropyridazine-3-carboxamide]
CC[C@@H]1CN(c2c(NC(=O)c3ccc(=O)n(-c4c(F)cccc4F)n3)cc(F)c3c2cnn3C(C)C)C[C@@H]1N [Example 216, N-(4-((3R,4R)-3-amino-4-ethylpyrrolidin-1-yl)-7-fluoro-1-isopropyl-1H-indazol-5-yl)-1-(2,6-difluorophenyl)-6-oxo-1,6-dihydropyridazine-3-carboxamide]
CC(C)n1ncc2c(N3CCC(N)CC3)c(NC(=O)c3ccc(=O)n(-c4c(F)cccc4F)n3)cc(F)c21 [Example 217, N-(4-(4-aminopiperidin-1-yl)-7-fluoro-1-isopropyl-1H-indazol-5-yl)-1-(2,6-difluorophenyl)-6-oxo-1,6-dihydropyridazine-3-carboxamide]
Cc1nn(C(C)C)c2c(F)cc(NC(=O)c3ccc(=O)n(-c4c(F)cccc4F)n3)c(N3C[C@@H](C)[C@@H](N)C3)c12 [Example 218, N-(4-((3R,4R)-3-amino-4-methylpyrrolidin-1-yl)-7-fluoro-1-isopropyl-3-methyl-1H-indazol-5-yl)-1-(2,6-difluorophenyl)-6-oxo-1,6-dihydropyridazine-3-carboxamide]
CC(C)n1ncc2c(N3C[C@H]4CNC[C@H]4C3)c(NC(=O)c3ccc(=O)n(-c4c(F)cccc4F)n3)cc(F)c21 [Example 219, 1-(2,6-difluorophenyl)-N-(7-fluoro-4-((3aR,6aS)-hexahydropyrrolo[3,4-c]pyrrol-2(1H)-yl)-1-isopropyl-1H-indazol-5-yl)-6-oxo-1,6-dihydropyridazine-3-carboxamide]
CC(C)n1cc2c(N3CC[C@@](C)(N)C3)c(NC(=O)c3ccc(=O)n(-c4c(F)cccc4F)n3)ccc2n1 [Example 220, (R)—N-(4-(3-amino-3-methylpyrrolidin-1-yl)-2-isopropyl-2H-indazol-5-yl)-1-(2,6-difluorophenyl)-6-oxo-1,6-dihydropyridazine-3-carboxamide]
CC(C)n1cc2c(N3CC[C@@H](CN)C3)c(NC(=O)c3ccc(=O)n(-c4c(F)cccc4F)n3)cc(F)c2n1 [Example 221, (S)-N-(4-(3-(aminomethyl)pyrrolidin-1-yl)-7-fluoro-2-isopropyl-2H-indazol-5-yl)-1-(2,6-difluorophenyl)-6-oxo-1,6-dihydropyridazine-3-carboxamide]
CC(C)n1cc2c(N3CC[C@@H](N)C3)c(NC(=O)c3ccc(=O)n(-c4c(F)cccc4F)n3)cc(F)c2n1 [Example 222, (R)-N-(4-(3-aminopyrrolidin-1-yl)-7-fluoro-2-isopropyl-2H-indazol-5-yl)-1-(2,6-difluorophenyl)-6-oxo-1,6-dihydropyridazine-3-carboxamide]
CC(C)n1nc2c(F)cc(NC(=O)c3ccc(=O)n(-c4c(F)cccc4F)n3)c(N3CC[C@@H](N)C3)c2c1Cl [Example 223, (R)-N-(4-(3-aminopyrrolidin-1-yl)-3-chloro-7-fluoro-2-isopropyl-2H-indazol-5-yl)-1-(2,6-difluorophenyl)-6-oxo-1,6-dihydropyridazine-3-carboxamide]
CC(C)n1cc2c(N3C[C@@H](C)[C@@H](N)C3)c(NC(=O)c3ccc(=O)n(-c4c(F)cccc4F)n3)ccc2n1 [Example 224, N-(4-((3R,4R)-3-amino-4-methylpyrrolidin-1-yl)-2-isopropyl-2H-indazol-5-yl)-1-(2,6-difluorophenyl)-6-oxo-1,6-dihydropyridazine-3-carboxamide]
CC(C)n1cc2c(N3CCC[C@@H]3CN)c(NC(=O)c3ccc(=O)n(-c4c(F)cccc4F)n3)ccc2n1 [Example 225, (R)-N-(4-(2-(aminomethyl)pyrrolidin-1-yl)-2-isopropyl-2H-indazol-5-yl)-1-(2,6-difluorophenyl)-6-oxo-1,6-dihydropyridazine-3-carboxamide]
Cc1cc(NC(=O)c2ccc(=O)n(-c3c(F)cccc3F)n2)c(N2CC[C@@H](N)C2)c2cn(C(C)C)nc12 [Example 226, (R)-N-(4-(3-aminopyrrolidin-1-yl)-2-isopropyl-7-methyl-2H-indazol-5-yl)-1-(2,6-difluorophenyl)-6-oxo-1,6-dihydropyridazine-3-carboxamide]
CC(C)n1cc2c(N3C[C@H](N)C(C)(C)C3)c(NC(=O)c3ccc(=O)n(-c4c(F)cccc4F)n3)ccc2n1 [Example 227, (R)-N-(4-(4-amino-3,3-dimethylpyrrolidin-1-yl)-2-isopropyl-2H-indazol-5-yl)-1-(2,6-difluorophenyl)-6-oxo-1,6-dihydropyridazine-3-carboxamide]
CC(C)n1cc2c(N3C[C@@H](N)C(C)(C)C3)c(NC(=O)c3ccc(=O)n(-c4c(F)cccc4F)n3)ccc2n1 [Example 228, (S)-N-(4-(4-amino-3,3-dimethylpyrrolidin-1-yl)-2-isopropyl-2H-indazol-5-yl)-1-(2,6-difluorophenyl)-6-oxo-1,6-dihydropyridazine-3-carboxamide]
CC(C)n1cc2c(N3C[C@H](N)C4(CC4)C3)c(NC(=O)c3ccc(=O)n(-c4c(F)cccc4F)n3)ccc2n1 [Example 229]

Reference: patent US20250122174A1 (Shenzhen Yuanli Shenwan Innovative Medicine Co., Ltd., priority 2022, published 2025)
